Paper PMC11550483 (2024)
Where a SMILES comes first, the peptide text is derived from it.

Target: SARS2 M^pro (Severe acute respiratory syndrome coronavirus 2, UniProt P0DTD1, P3395H)
Format: biochemical, SARS-CoV-2

First: COCCCNC(=O)/C(C#N)=C/c1cc(C)n(-c2ccc(F)cc2)c1C [MWAC-0001826, COCCCNC(=O)\C(=C\c1cc(C)n(c1C)c2ccc(F)cc2)\C#N]
Second: CCOc1ccccc1OCC(=O)N/N=C/c1cc(C)ccc1O [MWAC-0001844, CCOc1ccccc1OCC(=O)N\N=C\c2cc(C)ccc2O]
The “% inhibition (20 µM) biochemical” value of the first is lower: 5% for the first, 21% for the second.

Going from `CN(C)c1ccc(/C=N\Nc2cn[nH]c(=O)c2Cl)cc1` [MWAC-0001746, CN(C)c1ccc(\C=N/NC2=C(Cl)C(=O)NN=C2)cc1] to `CC(C)c1cc(C(=O)Nc2ccc(Br)cc2)no1` [MWAC-0001748, CC(C)c1onc(c1)C(=O)Nc2ccc(Br)cc2], the “% inhibition (20 µM) biochemical” value falls from 15% to 6%.

First: CCOc1ccccc1N1C(=O)CC(Sc2nnc(-c3ccccc3)[nH]2)C1=O (stereo not shown) [MWAC-0001798, CCOc1ccccc1N2C(=O)CC(Sc3nnc([nH]3)c4ccccc4)C2=O]
Second: CCOc1ccccc1OCCCOc1ccccc1C=O [MWAC-0001794, CCOc1ccccc1OCCCOc2ccccc2C=O]
The “% inhibition (20 µM) biochemical” value of the first is higher: 2.63% for the first, 2.44% for the second.

Going from `O=C(CCC(=O)Nc1ccc2c(c1)OCCO2)Nc1ccc(OCc2ccccc2)cc1` [MWAC-0001840, O=C(CCC(=O)Nc1ccc2OCCOc2c1)Nc3ccc(OCc4ccccc4)cc3] to `Cc1ccc2nc(-c3ccc(NC(=O)CCOc4ccccc4)cc3)sc2c1` [MWAC-0001713, Cc1ccc2nc(sc2c1)c3ccc(NC(=O)CCOc4ccccc4)cc3], the “% inhibition (20 µM) biochemical” value rises from 3% to 14%.

Going from `CCCN1C(=O)C2(c3cc(C)ccc31)N1CC3(C)CN2CC(C)(C1)C3=O` (stereo not shown) [MWAC-0001760, CCCN1C(=O)C2(N3CC4(C)CN2CC(C)(C3)C4=O)c5cc(C)ccc15] to `CCCN1C(=O)C(O)(CC(=O)c2ccccc2OC)c2cc(Br)ccc21` (stereo not shown) [MWAC-0001769, CCCN1C(=O)C(O)(CC(=O)c2ccccc2OC)c3cc(Br)ccc13], the “% inhibition (20 µM) biochemical” value falls from 7% to 2.64%.

Going from `CC(C)c1cc(NC(=O)CCl)cc(C(C)C)c1O` [MWAC-0001888, CC(C)c1cc(NC(=O)CCl)cc(C(C)C)c1O] to `Cc1cc(S(=O)(=O)NC(C)C)ccc1OCC(=O)Nc1cccc([N+](=O)[O-])c1` [MWAC-0001775, CC(C)NS(=O)(=O)c1ccc(OCC(=O)Nc2cccc(c2)[N+](=O)[O-])c(C)c1], the “% inhibition (20 µM) biochemical” value falls from 80% to 3.17%.

First: Nc1ncnc(N)c1N=Nc1ccccc1 [MWAC-0001835, Nc1ncnc(N)c1N=Nc2ccccc2]
Second: Cc1ccc(NC(=S)Nc2ccccc2)nc1 [MWAC-0001820, Cc1ccc(NC(=S)Nc2ccccc2)nc1]
The “% inhibition (20 µM) biochemical” value of the first is higher: 6.65% for the first, 2.27% for the second.

First: C#CCN1C(=O)C(O)(CC(=O)c2ccc(F)cc2)c2ccccc21 (stereo not shown) [MWAC-0001730, OC1(CC(=O)c2ccc(F)cc2)C(=O)N(CC#C)c3ccccc13]
Second: C#CCN1C(=O)C(O)(CC(=O)c2ccc(Cl)cc2)c2ccccc21 (stereo not shown) [MWAC-0001731, OC1(CC(=O)c2ccc(Cl)cc2)C(=O)N(CC#C)c3ccccc13]
The “% inhibition (20 µM) biochemical” value of the first is higher: 8% for the first, 5% for the second.

Compared with `Cc1ccc(OCCN2C(=O)C(=O)c3ccccc32)cc1` [MWAC-0001827, Cc1ccc(OCCN2C(=O)C(=O)c3ccccc23)cc1], `N#Cc1ccccc1CN1C(=O)C(=O)c2ccccc21` [MWAC-0001764, O=C1N(Cc2ccccc2C#N)c3ccccc3C1=O] is higher in “% inhibition (20 µM) biochemical” value: 4.54% for the first, 7% for the second.

Going from `COc1ccc2ccccc2c1/C=C1/S/C(=N/c2ccccc2Cl)NC1=O` [MWAC-0001721, COc1ccc2ccccc2c1\C=C/3\S\C(=N\c4ccccc4Cl)\NC3=O] to `COc1ccc(-c2cc(=O)c3ccccc3s2)cc1` [MWAC-0001878, COc1ccc(cc1)C2=CC(=O)c3ccccc3S2], the “% inhibition (20 µM) biochemical” value falls from 6% to 0%.

First: O=C(CC1(O)C(=O)Nc2ccc(I)cc21)c1cccs1 (stereo not shown) [MWAC-0001763, OC1(CC(=O)c2cccs2)C(=O)Nc3ccc(I)cc13]
Second: C=CCN1C(=O)C(O)(CC(=O)c2ccc(C)cc2)c2cc(Br)ccc21 (stereo not shown) [MWAC-0001738, Cc1ccc(cc1)C(=O)CC2(O)C(=O)N(CC=C)c3ccc(Br)cc23]
The “% inhibition (20 µM) biochemical” value of the first is higher: 6.56% for the first, 4.69% for the second.

`Cc1noc(N)c1C(=O)Nc1ccc(C(C)(C)C)cc1` [MWAC-0001886, Cc1noc(N)c1C(=O)Nc2ccc(cc2)C(C)(C)C] and `COC(=O)c1ccc(C(=O)Nc2ccccc2N)cc1` [MWAC-0001884, COC(=O)c1ccc(cc1)C(=O)Nc2ccccc2N] are the same in “% inhibition (20 µM) biochemical” value: 0% for the first, 0% for the second.

Compared with `O=C(CC(SCc1ccco1)c1ccc(Cl)cc1)c1cccs1` (stereo not shown) [MWAC-0001874, Clc1ccc(cc1)C(CC(=O)c2cccs2)SCc3occc3], `O=C(COc1ccccc1)Nc1scc(-c2ccccc2)c1C(=O)NCc1ccco1` [MWAC-0001777, O=C(COc1ccccc1)Nc2scc(c3ccccc3)c2C(=O)NCc4occc4] is higher in “% inhibition (20 µM) biochemical” value: 0% for the first, 3.67% for the second.

First: CCOC(=O)c1c(NC(=O)CCl)sc2c1CC(C)(C)NC2(C)C [MWAC-0001854, CCOC(=O)c1c(NC(=O)CCl)sc2c1CC(C)(C)NC2(C)C]
Second: CCOC(=O)C(=O)Nc1sc(C(=O)Nc2cccc(Cl)c2)c(C)c1C(=O)OC [MWAC-0001843, CCOC(=O)C(=O)Nc1sc(C(=O)Nc2cccc(Cl)c2)c(C)c1C(=O)OC]
The “% inhibition (20 µM) biochemical” value of the first is higher: 98% for the first, 5.71% for the second.

Going from `CC(=O)N(/N=C1\Sc2ccccc2C1=O)c1ccccc1C` [MWAC-0001741, CC(=O)N(\N=C\1/Sc2ccccc2C1=O)c3ccccc3C] to `Cc1cc(=O)oc2c(C)c(OCc3ccccc3)ccc12` [MWAC-0001732, CC1=CC(=O)Oc2c(C)c(OCc3ccccc3)ccc12], the “% inhibition (20 µM) biochemical” value falls from 36% to 7%.

First: CSCCC(C=O)NC(=O)C(CC(C)C)NC(=O)C(CC(C)C)NC(C)=O (stereo not drawn) [MWAC-0001889, CSCCC(NC(=O)C(CC(C)C)NC(=O)C(CC(C)C)NC(=O)C)C=O] (Ac-Leu-Leu-Met-aldehyde; configuration not given here)
Second: O=C(CCl)NC(NC(=O)CCl)c1ccccc1F [MWAC-0001862, Fc1ccccc1C(NC(=O)CCl)NC(=O)CCl]
The “% inhibition (20 µM) biochemical” value of the first is higher: 99% for the first, 40% for the second.

Compared with `Cc1cccc(NC(=O)COc2ccc(Br)cc2/C=N/O)c1` [MWAC-0001791, Cc1cccc(NC(=O)COc2ccc(Br)cc2\C=N\O)c1], `O=C1NC(=O)C(=Cc2cc(Br)ccc2OCc2cccc(F)c2)C(=O)N1` [MWAC-0001793, Fc1cccc(COc2ccc(Br)cc2C=C3C(=O)NC(=O)NC3=O)c1] is higher in “% inhibition (20 µM) biochemical” value: 0.745% for the first, 4% for the second.

First: CC1=CC(C)(C)N2C(=O)C3(Nc4ccccc4CO3)c3cc(C)cc1c32 (stereo not shown) [MWAC-0001770, CC1=CC(C)(C)N2C(=O)C3(Nc4ccccc4CO3)c5cc(C)cc1c25]
Second: COc1ccc(C2(C)CC(C)(C)N(C(C)=O)c3ccccc32)cc1 (stereo not shown) [MWAC-0001751, COc1ccc(cc1)C2(C)CC(C)(C)N(C(=O)C)c3ccccc23]
The “% inhibition (20 µM) biochemical” value of the first is lower: 0.845% for the first, 4.45% for the second.

Going from `O=C(CN1C(=O)C(=O)N(Cc2ccccc2)C1=O)Nc1cc(Cl)cc(Cl)c1` [MWAC-0001847, Clc1cc(Cl)cc(NC(=O)CN2C(=O)N(Cc3ccccc3)C(=O)C2=O)c1] to `CC(=O)Nc1ccc(OS(=O)(=O)c2ccc(Cl)c3ccccc23)cc1` [MWAC-0001803, CC(=O)Nc1ccc(OS(=O)(=O)c2ccc(Cl)c3ccccc23)cc1], the “% inhibition (20 µM) biochemical” value rises from 0.75% to 1.42%.

Going from `CCOc1ccccc1N1CCN(C(=O)c2ccc(Cl)c([N+](=O)[O-])c2)CC1` [MWAC-0001782, CCOc1ccccc1N2CCN(CC2)C(=O)c3ccc(Cl)c(c3)[N+](=O)[O-]] to `CC1CCN(C(=O)/C=C/c2cccc3ccccc23)CC1` [MWAC-0001755, CC1CCN(CC1)C(=O)\C=C\c2cccc3ccccc23], the “% inhibition (20 µM) biochemical” value rises from 0.51% to 4.32%.

Compared with `O=C(Nc1ccc(-c2cscn2)cc1)C1CCCN(Cc2ccccc2)C1` (stereo not shown) [MWAC-0001767, O=C(Nc1ccc(cc1)c2cscn2)C3CCCN(Cc4ccccc4)C3], `COc1ccc(C(=O)NNC(=O)Cc2ccc(-c3ccccc3)cc2)cc1` [MWAC-0001846, COc1ccc(cc1)C(=O)NNC(=O)Cc2ccc(cc2)c3ccccc3] is lower in “% inhibition (20 µM) biochemical” value: 3.2% for the first, 0.595% for the second.

First: O=C(Nc1cc([N+](=O)[O-])ccc1F)c1cccc(F)c1 [MWAC-0001808, [O-][N+](=O)c1ccc(F)c(NC(=O)c2cccc(F)c2)c1]
Second: O=C(Nc1nc2ccccc2[nH]1)c1ccc(Br)o1 [MWAC-0001805, Brc1oc(cc1)C(=O)Nc2nc3ccccc3[nH]2]
The “% inhibition (20 µM) biochemical” value of the first is lower: 1.53% for the first, 9% for the second.

First: O=C(CCl)NCCOc1ccccc1 [MWAC-0001864, ClCC(=O)NCCOc1ccccc1]
Second: COC(=O)CSC1=C(C#N)C(c2ccccc2OC)CC(=O)N1 (stereo not shown) [MWAC-0001735, COC(=O)CSC1=C(C#N)C(CC(=O)N1)c2ccccc2OC]
The “% inhibition (20 µM) biochemical” value of the first is higher: 58% for the first, 4.32% for the second.

Compared with `Cc1cc(I)cnc1NC(=S)NC(=O)c1ccco1` [MWAC-0001789, Cc1cc(I)cnc1NC(=S)NC(=O)c2occc2], `Cc1ccc2nc(N3C(=O)C(O)=C(C(=O)c4ccco4)C3c3ccco3)sc2c1` (stereo not shown) [MWAC-0001821, Cc1ccc2nc(sc2c1)N3C(C(=C(O)C3=O)C(=O)c4occc4)c5occc5] is higher in “% inhibition (20 µM) biochemical” value: 2.41% for the first, 16% for the second.

`Nc1c(C(=O)c2ccccc2)sc2nc(C3CC3)cc(-c3ccco3)c12` [MWAC-0001875, Nc1c(sc2nc(cc(c3occc3)c12)C4CC4)C(=O)c5ccccc5] and `Fc1cccc(/N=c2\oc3ccccc3cc2-c2nc3ccccc3[nH]2)c1` [MWAC-0001716, Fc1cccc(c1)\N=C\2/Oc3ccccc3C=C2c4nc5ccccc5[nH]4] are the same in “% inhibition (20 µM) biochemical” value: 0% for the first, 0% for the second.

Going from `CCOc1ccc(-c2nc(CSc3nnc(N)[nH]3)cs2)cc1` [MWAC-0001853, CCOc1ccc(cc1)c2nc(CSc3nnc(N)[nH]3)cs2] to `O=C1/C(=C/c2ccc(F)cc2)SC(=S)N1Cc1cccnc1` [MWAC-0001802, Fc1ccc(\C=C\2/SC(=S)N(Cc3cccnc3)C2=O)cc1], the “% inhibition (20 µM) biochemical” value rises from 1.25% to 7%.

Going from `CCOc1ccccc1C1Nc2ccccc2NC2=C1C(=O)CC(c1ccc3c(c1)OCO3)C2` (stereo not shown) [MWAC-0001720, CCOc1ccccc1C2Nc3ccccc3NC4=C2C(=O)CC(C4)c5ccc6OCOc6c5] to `O=C1CSC(=S)N1Cc1cccnc1` [MWAC-0001797, O=C1CSC(=S)N1Cc2cccnc2], the “% inhibition (20 µM) biochemical” value rises from 0% to 7%.

`Cc1cccc(OCCNC(=O)C(C)Cl)c1` (stereo not shown) was tested, and the “M^pro inhibition activity (in words)” value was “lost all activity”.
